Experimental data from patent US20040186052A1, “Cytomodulating peptides and methods for treating neurological disorders” (priority 2002, published 2004).

What was measured:
[1] = test system: dopaminergic neurons in the substantia nigra; conditions: MPTP model; cited from earlier work
[2] = test system: ChAT neurons of the nucleus basalis; conditions: following insult with ibotenic acid; cited from earlier work
[3] = test system: hair cell and cochlear neuron; conditions: associated with trauma; cited from earlier work
MS = conditions: in vivo; cited from earlier work
[4] = test system: neuronal subtypes deprived of trophic support; conditions: cited from earlier work
retinal ganglion cells = conditions: following axotomy of the optic nerve; cited from earlier work
primary neurons = conditions: cited from earlier work
[5] = in vivo; cited from earlier work
Body weight in EAE rats = type: in vivo, Lewis rats; conditions: 50, 15, or 5 mg by icv injection ten days after immunization; % body weight vs starting point
NGF-dependent neurons = test: Apoptosis of NGF-dependent neurons after NGF deprivation (TUNEL); type: cell-based; conditions: media lacking NGF and containing anti-NGF antibody
Protocol: NGF-dependent neurons are maintained in vitro in media containing NGF. The cells are washed and the media containing NGF is replaced with media lacking NGF and containing anti-NGF antibody. One sample is incubated in the presence of RDP-58, the other in the absence of RDP-58. Apoptosis is measured in the two samples, for example, by TUNEL labeling. RDP-58 inhibits neuronal apoptosis in NGF-dependent neurons induced by NGF deprivation.

[6] = test system: experimental autoimmune encephalomyelitis (EAE); test: Acute EAE in Lewis rats, daily clinical scoring; type: in vivo; conditions: intracerebroventricular administration (Table I, FIG. 7)
TNFα mRNA = test: Cytokine mRNA in brain of EAE rats by real-time RT-PCR; type: in vivo, Lewis rats; conditions: brain RNA thirteen days after immunization, RDP58- vs Mannitol-treated, n=9, P<0.05
Protocol: Animals were sacrificed for molecular analysis at post onset day 5. Brains and spinal cords were removed and frozen in liquid nitrogen, then stored at −80° C. until ready for use. The tissues were subsequently homogenized in 700 μl of a guanidinium isothiocyanate solution containing 49 μl β-mercaptoethanol using an Ultraturrax tissue homogenizer (Jahnke and Kunkel, Staufen i. Breisgau, Germany). Total RNA was extracted by using the Absolutely RNA™ RT-PCR Miniprep Kit (Stratagene, La Jolla, USA) and its quality and quantity was determined with the Agilent 2100 Bioanalyzer System (Agilent Technologies, Palo Alto, USA). […]
To measure cytokine mRNA levels, the expression of each gene transcript was analyzed by real-time PCR using the ABI PRISM 7700 Sequence Detection System (TaqMan™, Perkin-Elmer Biosystems, Weiterstadt, Germany). […]
The PCR reaction was performed in a final volume of 25 μl containing 1 μl cDNA, 12.5 μl Master Mix (TaqMan™ Universal PCR Master Mix, Perkin Elmer, Applied Biosystems, Weiterstadt, Germany), 1 μl fluorogenic hybridization probe, […], and 5.5 μl distilled water. […] The mean Ct values for beta-actin and the cytokines were calculated from duplicate reactions. […]

[7] = rheumatoid arthritis patients; cited from earlier work
[8] = test system: relapsing-remitting form of MS; conditions: patients with relapsing-remitting MS; cited from earlier work
Parkinson's disease = conditions: direct infusion into the putamen; cited from earlier work

## CCSCc1ccc2c(c1)c1c3c(c4c5cc(CSCC)ccc5n5c4c1n2[C@H]1C[C@](O)(C(=O)OC)[C@]5(C)O1)CNC3=O [CEP-1347]
[1]
  survival of dopaminergic neurons in the substantia nigra: promotes
[2]
  functional deficits: reduces
  survival of ChAT neurons of the nucleus basalis: promotes
[3]
  functional deficits: reduce
  hair cell and cochlear neuron death: prevent

## Cc1ccc(=O)n(-c2ccccc2)c1 [Pirfenidone]
MS
  progression of MS: slow
  symptoms of MS: reduce

## Oc1ccc(-c2nc(-c3ccncc3)c(-c3ccc(F)cc3)[nH]2)cc1 [SB202190]
[4]
  survival of neuronal subtypes: promote survival

## C[S+]([O-])c1ccc(-c2nc(-c3ccncc3)c(-c3ccc(F)cc3)[nH]2)cc1 (stereo not shown) [SB203580]
[4]
  survival of neuronal subtypes: promote survival
Retinal ganglion cells
  retinal ganglion cell death: reduced
Primary neurons
  NO toxicity: inhibits

## CN(C)c1ccc(O)c2c1C[C@H]1C[C@H]3[C@H](N(C)C)C(O)=C(C(N)=O)C(=O)[C@@]3(O)C(O)=C1C2=O [minocycline]
[5]
  penetration of the blood-brain-barrier: limited

## Arg-nL-nL-nL-Arg-nL-nL-nL-Gly-Tyr [RDP58]
Body weight in EAE rats
  change in body weight associated with EAE induction: reduces
NGF-dependent neurons
  neuronal apoptosis induced by NGF deprivation: inhibits
[6]
  disease index: reducing
  incidence: reducing
  mean clinical scores: reducing
  severity: reducing
TNFα mRNA
  TNFα mRNA level in brain: significantly reduced

## Infliximab: anti-TNF monoclonal antibody
[7]
  demyelinating disease symptoms: correlated with incidences of demyelinating disease symptoms in some patients

## glatiramer acetate
[8]
  disease episodes: reductions

B1: GDNF: glial cell line-derived neurotrophic factor (protein, UniProt P39905 78-211, looked up)
Glial cell line-derived …: SPDKQMAVLPRRERNRQAAAANPENSRGKGRRGQRGKNRGCVLTAIHLNVTDLGLGYETKEELIFRYCSGSCDAAETTYDKILKNLSRNRRLVSDKVGQACCRPIAFDDDLSFLDDNLVYHILRKHSAKRCGCI
Parkinson's disease
  patients' performance: improve
